Test results: PubChem BioAssay (NCI)
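How tested: cells in 96-well plates exposed to compound for 48 hours at five concentrations. GI50: concentration for 50% inhibition of growth. TGI: concentration producing complete growth inhibition.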

Key:
Test in all cases: NCI anticancer screen, dose series, 48 h
[1] = tested on: 786-0 renal
[2] = tested on: A498 renal
[3] = tested on: A549 NSCLC
[4] = tested on: ACHN renal
[5] = tested on: BT-549 breast
[6] = tested on: CAKI-1 renal
[7] = tested on: CCRF-CEM leukemia
[8] = tested on: COLO 205 colon
[9] = tested on: DU-145 prostate
[10] = tested on: EKVX NSCLC
[11] = tested on: HCC-2998 colon
[12] = tested on: HCT-116 colon
[13] = tested on: HCT-15 colon
[14] = tested on: HL-60(TB) leukemia
[15] = tested on: HOP-62 NSCLC
[16] = tested on: HOP-92 NSCLC
[17] = tested on: HS 578T breast
[18] = tested on: HT29 colon
[19] = tested on: IGROV1 ovarian
[20] = tested on: K-562 leukemia
[21] = tested on: KM12 colon
[22] = tested on: LOX IMVI melanoma
[23] = tested on: M14 melanoma
[24] = tested on: MALME-3M melanoma
[25] = tested on: MCF7 breast
[26] = tested on: MDA-MB-231 breast
[27] = tested on: MDA-MB-435
[28] = tested on: MOLT-4 leukemia
[29] = tested on: NCI-H226 lung
[30] = tested on: NCI-H23 lung
[31] = tested on: NCI-H460 lung
[32] = tested on: NCI-H522 lung
[33] = tested on: NCI/ADR-RES ovarian
[34] = tested on: OVCAR-3 ovarian
[35] = tested on: OVCAR-4 ovarian
[36] = tested on: OVCAR-5 ovarian
[37] = tested on: OVCAR-8 ovarian
[38] = tested on: PC-3 prostate
[39] = tested on: RPMI-8226 leukemia
[40] = tested on: RXF 393 renal
[41] = tested on: SF-268 CNS
[42] = tested on: SF-295 CNS
[43] = tested on: SF-539 CNS
[44] = tested on: SK-MEL-2 melanoma
[45] = tested on: SK-MEL-28 melanoma
[46] = tested on: SK-MEL-5 melanoma
[47] = tested on: SK-OV-3 ovarian
[48] = tested on: SN12C renal
[49] = tested on: SNB-19 CNS
[50] = tested on: SNB-75 CNS
[51] = tested on: SR leukemia
[52] = tested on: SW-620 colon
[53] = tested on: T-47D breast
[54] = tested on: TK-10 renal
[55] = tested on: U251 CNS
[56] = tested on: UACC-257 melanoma
[57] = tested on: UACC-62 melanoma
[58] = tested on: UO-31 renal

In the case of `CC1(C)N=C(N)N=C(N)N1c1ccc(Cl)c(Cl)c1`, the GI50 [1] was 0.072 µM, the TGI [1] was > 100 µM and the GI50 [2] was 11.2 µM. For the same compound, the TGI [2] was > 100 µM, the GI50 [3] was 0.152 µM and the TGI [3] was > 100 µM. The GI50 [4] was 0.683 µM, the TGI [4] was > 100 µM and the GI50 [5] was 6.66 µM. For the same compound, the TGI [5] was > 100 µM, the GI50 [6] was 12.5 µM and the TGI [6] was > 100 µM. The GI50 [7] was 3.39 µM, the TGI [7] was > 52.3 µM and the GI50 [8] was 3.56 µM. For the same compound, the TGI [8] was > 100 µM, the GI50 [9] was 0.523 µM and the TGI [9] was > 100 µM. For the same compound, the GI50 [10] was 1.97 µM, the TGI [10] was > 100 µM and the GI50 [11] was 0.508 µM. The TGI [11] was > 40.7 µM, the GI50 [12] was 0.0549 µM and the TGI [12] was > 100 µM. The GI50 [13] was 1.37 µM, the TGI [13] was > 100 µM and the GI50 [14] was 6.27 µM. For the same compound, the TGI [14] was > 100 µM, the GI50 [15] was 0.533 µM and the TGI [15] was > 100 µM. For the same compound, the GI50 [16] was 47.1 µM, the TGI [16] was > 100 µM and the GI50 [17] was > 27.3 µM. The TGI [17] was > 100 µM, the GI50 [18] was 0.1 µM and the TGI [18] was > 100 µM. The GI50 [19] was 0.356 µM, the TGI [19] was > 100 µM and the GI50 [20] was 0.0636 µM. The TGI [20] was > 100 µM, the GI50 [21] was 0.648 µM and the TGI [21] was > 100 µM. For the same compound, the GI50 [22] was 0.0879 µM, the TGI [22] was > 100 µM and the GI50 [23] was 0.441 µM. For the same compound, the TGI [23] was > 100 µM, the GI50 [24] was 32 µM and the TGI [24] was > 100 µM. For the same compound, the GI50 [25] was 0.388 µM, the TGI [25] was > 100 µM and the GI50 [26] was > 100 µM. For the same compound, the TGI [26] was > 100 µM, the GI50 [27] was 0.0644 µM and the TGI [27] was > 100 µM. The GI50 [28] was 1.38 µM, the TGI [28] was > 100 µM and the TGI [29] was > 100 µM. For the same compound, the GI50 [30] was 0.453 µM, the TGI [30] was > 100 µM and the GI50 [31] was 0.0919 µM. For the same compound, the TGI [31] was > 100 µM, the GI50 [32] was 6.67 µM and the TGI [32] was > 100 µM. The GI50 [33] was 43 µM, the TGI [33] was > 100 µM and the GI50 [34] was 5.27 µM. The TGI [34] was > 100 µM, the GI50 [35] was 10.9 µM and the TGI [35] was > 100 µM. For the same compound, the GI50 [36] was 0.252 µM, the TGI [36] was > 100 µM and the GI50 [37] was 0.202 µM. For the same compound, the TGI [37] was > 100 µM, the GI50 [38] was 0.157 µM and the TGI [38] was > 100 µM. For the same compound, the TGI [39] was > 100 µM, the GI50 [40] was 29.1 µM and the TGI [40] was > 100 µM. The GI50 [41] was 0.0566 µM, the TGI [41] was > 100 µM and the GI50 [42] was 0.304 µM. For the same compound, the GI50 [43] was 0.201 µM, the TGI [43] was > 54 µM and the GI50 [44] was > 100 µM. The TGI [44] was > 100 µM, the GI50 [45] was 11.7 µM and the TGI [45] was > 100 µM. For the same compound, the GI50 [46] was 0.547 µM, the TGI [46] was > 100 µM and the GI50 [47] was 0.83 µM. For the same compound, the TGI [47] was > 100 µM, the GI50 [48] was 0.694 µM and the TGI [48] was > 100 µM. The GI50 [49] was 1 µM, the TGI [49] was > 100 µM and the GI50 [50] was 18.7 µM. For the same compound, the TGI [50] was > 81.3 µM, the GI50 [51] was 31.3 µM and the TGI [51] was > 100 µM. For the same compound, the GI50 [52] was 0.0966 µM, the TGI [52] was > 100 µM and the GI50 [53] was > 45.8 µM. The TGI [53] was > 100 µM, the TGI [54] was > 100 µM and the GI50 [55] was 0.0887 µM. The TGI [55] was > 100 µM, the GI50 [56] was > 41.6 µM and the TGI [56] was > 100 µM. For the same compound, the GI50 [57] was 0.612 µM, the TGI [57] was > 100 µM and the GI50 [58] was 13.5 µM. For the same compound, the TGI [58] was > 100 µM.
